Laboratory results as given in the NIST ThermoML archive (doi:10.1016/j.jct.2017.07.008).
Numbers after ± are expanded uncertainties.

Assay: refractive index (Na D-line) (dimensionless)
Conditions: 100 kPa, Liquid, Standard Abbe refractometry

Which results are given for `O=Cc1cccs1` [2-thiophenealdehyde]?
refractive index (283.15 K): 1.5924 ± 0.0004; refractive index (285.65 K): 1.5912 ± 0.0004; refractive index (288.15 K): 1.59 ± 0.0004; refractive index (290.65 K): 1.5888 ± 0.0004; refractive index (293.15 K): 1.5876 ± 0.0004; refractive index (295.65 K): 1.5864 ± 0.0004; refractive index (298.15 K): 1.5853 ± 0.0004; refractive index (300.65 K): 1.5841 ± 0.0004; refractive index (303.15 K): 1.5829 ± 0.0004; refractive index (305.65 K): 1.5817 ± 0.0004; refractive index (308.15 K): 1.5805 ± 0.0004; refractive index (310.65 K): 1.5793 ± 0.0004; refractive index (313.15 K): 1.5781 ± 0.0004; refractive index (315.65 K): 1.5769 ± 0.0004; refractive index (318.15 K): 1.5757 ± 0.0004; refractive index (320.65 K): 1.5745 ± 0.0004; refractive index (323.15 K): 1.5733 ± 0.0004; refractive index (325.65 K): 1.5721 ± 0.0004; refractive index (328.15 K): 1.5709 ± 0.0004; refractive index (330.65 K): 1.5697 ± 0.0004; refractive index (333.15 K): 1.5685 ± 0.0004; refractive index (335.65 K): 1.5674 ± 0.0004; refractive index (338.15 K): 1.5662 ± 0.0004

Which results are given for `OCc1cccs1` [2-thiophenemethanol]?
refractive index (283.15 K): 1.5713 ± 0.0004; refractive index (285.65 K): 1.5701 ± 0.0004; refractive index (288.15 K): 1.569 ± 0.0004; refractive index (290.65 K): 1.5679 ± 0.0004; refractive index (293.15 K): 1.5668 ± 0.0004; refractive index (295.65 K): 1.5657 ± 0.0004; refractive index (298.15 K): 1.5646 ± 0.0004; refractive index (300.65 K): 1.5635 ± 0.0004; refractive index (303.15 K): 1.5624 ± 0.0004; refractive index (305.65 K): 1.5613 ± 0.0004; refractive index (308.15 K): 1.5602 ± 0.0004; refractive index (310.65 K): 1.559 ± 0.0004; refractive index (313.15 K): 1.5579 ± 0.0004; refractive index (315.65 K): 1.5568 ± 0.0004; refractive index (318.15 K): 1.5557 ± 0.0004; refractive index (320.65 K): 1.5546 ± 0.0004; refractive index (323.15 K): 1.5535 ± 0.0004; refractive index (325.65 K): 1.5524 ± 0.0004; refractive index (328.15 K): 1.5513 ± 0.0004; refractive index (330.65 K): 1.5502 ± 0.0004; refractive index (333.15 K): 1.5491 ± 0.0004; refractive index (335.65 K): 1.548 ± 0.0004; refractive index (338.15 K): 1.5468 ± 0.0004
